Several values for one entry are separate records, joined by “and”; a condition that tells them apart may be missing. Equal entries are not always repeated. Inconclusive results and toxic doses are left out. Cut-off read from the data, not from the text of the source: active = T/C of 150% or more; inactive = T/C below 125%.
Tested on: L1210 leukemia ip in BDF1 mice, survival T/C
Experiment: NCI In Vivo Anticancer Drug Screen. Data for tumor model L1210 Leukemia (intraperitoneal) in B6D2F1 (BDF1) mice
Details: endpoint: mean survival time, higher = longer survival
Procedure, shortened: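 Tumor was transplanted into mice, which were then dosed with test compound or vehicle alone. Survival was recorded for each group, and the treated figure was expressed relative to the control figure.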

[1] = dose: 50.0 mg/kg/injection, schedule: Q01DX001 (ip), vehicle: saline
[2] = dose: 100.0 mg/kg/injection, schedule: Q01DX001 (ip), vehicle: saline
[3] = dose: 200.0 mg/kg/injection, schedule: Q01DX001 (ip), vehicle: saline
[4] = dose: 400.0 mg/kg/injection, schedule: Q01DX001 (ip), vehicle: saline
[5] = dose: 25.0 mg/kg/injection, schedule: Q01DX009 (ip), vehicle: saline with Tween-80
[6] = dose: 50.0 mg/kg/injection, schedule: Q01DX009 (ip), vehicle: saline with Tween-80
[7] = dose: 100.0 mg/kg/injection, schedule: Q01DX009 (ip), vehicle: saline with Tween-80
[8] = dose: 200.0 mg/kg/injection, schedule: Q01DX009 (ip), vehicle: saline with Tween-80
[9] = dose: 100.0 mg/kg/injection, schedule: Q04DX003 (ip), vehicle: saline with Tween-80
[10] = dose: 200.0 mg/kg/injection, schedule: Q04DX003 (ip), vehicle: saline with Tween-80
[11] = dose: 100.0 mg/kg/injection, schedule: Q01DX001 (ip), vehicle: Klucel (hydroxypropylcellulose) (HPC)
[12] = dose: 200.0 mg/kg/injection, schedule: Q01DX001 (ip), vehicle: Klucel (hydroxypropylcellulose) (HPC)
[13] = dose: 400.0 mg/kg/injection, schedule: Q01DX001 (ip), vehicle: Klucel (hydroxypropylcellulose) (HPC)
[14] = dose: 400.0 mg/kg/injection, schedule: Q04DX003 (ip), vehicle: saline with Tween-80

Measured: T/C

C#CC[P+](c1ccccc1)(c1ccccc1)c1ccccc1
inactive: dose: 6.25 mg/kg/injection, schedule: Q01DX001 (ip), vehicle: saline 106 % of control | dose: 12.5 mg/kg/injection, schedule: Q01DX001 (ip), vehicle: saline 109 % of control | dose: 25.0 mg/kg/injection, schedule: Q01DX001 (ip), vehicle: saline 116 % of control and 118 % of control

Cn1cc2c(=O)n(O)c(=O)[nH]c2n1
inactive: [1] 106 % of control | [2] 100 % of control | [3] 102 % of control | [4] 102 % of control

CCOC(=O)CSc1nc2nc(Cl)c(Cl)nc2[nH]1
inactive: [5] 104 % of control | [6] 98 % of control | [7] 105 % of control | [8] 96 % of control

O=C1CCC(=O)N1CCc1csc2ccccc12
inactive: dose: 100.0 mg/kg/injection, schedule: Q01DX001 (ip), vehicle: carboxymethylcellulose (CMC) 110 % of control | dose: 177.6 mg/kg/injection, schedule: Q01DX001 (ip), vehicle: carboxymethylcellulose (CMC) 95 % of control and 92 % of control | dose: 200.0 mg/kg/injection, schedule: Q01DX001 (ip), vehicle: carboxymethylcellulose (CMC) 96 % of control | dose: 266.8 mg/kg/injection, schedule: Q01DX001 (ip), vehicle: carboxymethylcellulose (CMC) 93 % of control and 94 % of control | dose: 600.0 mg/kg/injection, schedule: Q01DX001 (ip), vehicle: carboxymethylcellulose (CMC) 101 % of control and 91 % of control

N#CC1C2C=CC(CC2)C1C#N (stereo not drawn) (tested in a mixture with another compound)
inactive: dose: 0.25 mg/kg/injection, schedule: Q01DX Z (ip), vehicle: carboxymethylcellulose (CMC) 95 % of control | dose: 0.5 mg/kg/injection, schedule: Q01DX Z (ip), vehicle: carboxymethylcellulose (CMC) 93 % of control | dose: 1.0 mg/kg/injection, schedule: Q01DX Z (ip), vehicle: carboxymethylcellulose (CMC) 95 % of control | dose: 2.0 mg/kg/injection, schedule: Q01DX Z (ip), vehicle: carboxymethylcellulose (CMC) 93 % of control | dose: 5.0 mg/kg/injection, schedule: Q01DX001 (ip), vehicle: saline 98 % of control | dose: 10.0 mg/kg/injection, schedule: Q01DX001 (ip), vehicle: saline 95 % of control

Cc1cc(C)c([S-])c(C)c1.[Cu+]
inactive: dose: 18.8 mg/kg/injection, schedule: Q01DX001 (ip), vehicle: saline 98 % of control

N=C(N)c1cccc(NC(=O)c2ccc(C(=O)Nc3cccc(C(=N)N)c3)c(N)c2)c1
inactive: dose: 5.0 mg/kg/injection, schedule: Q01DX Z (ip), vehicle: carboxymethylcellulose (CMC) 106 % of control | dose: 10.0 mg/kg/injection, schedule: Q01DX Z (ip), vehicle: carboxymethylcellulose (CMC) 104 % of control | dose: 20.0 mg/kg/injection, schedule: Q01DX Z (ip), vehicle: carboxymethylcellulose (CMC) 120 % of control

C#CCOCC(CCl)OC(N)=O (stereo not drawn)
inactive: [6] 121 % of control | dose: 50.0 mg/kg/injection, schedule: Q04DX003 (ip), vehicle: saline with Tween-80 104 % of control | [7] 105 % of control | [9] 101 % of control | [8] 106 % of control | [10] 110 % of control

CC(C)(C)C1CC(Cl)C(=O)C(Cl)C1 (stereo not drawn)
inactive: [2] 104 % of control | dose: 100.0 mg/kg/injection, schedule: Q04DX003 (ip), vehicle: saline 96 % of control | [3] 94 % of control | dose: 200.0 mg/kg/injection, schedule: Q04DX003 (ip), vehicle: saline 112 % of control | [4] 88 % of control | dose: 400.0 mg/kg/injection, schedule: Q04DX003 (ip), vehicle: saline 94 % of control

CCN(CCO)c1ccc(N)cc1C
inactive: dose: 0.5 mg/kg/injection, schedule: Q04DX003 (ip), vehicle: saline 97 % of control | dose: 1.0 mg/kg/injection, schedule: Q04DX003 (ip), vehicle: saline 95 % of control | dose: 2.0 mg/kg/injection, schedule: Q04DX003 (ip), vehicle: saline 97 % of control | dose: 6.25 mg/kg/injection, schedule: Q04DX003 (ip), vehicle: saline 88 % of control | dose: 12.5 mg/kg/injection, schedule: Q04DX003 (ip), vehicle: saline 102 % of control

Cn1c(=O)c2[nH]c(CC3=CCCCC3)nc2n(C)c1=O
inactive: dose: 50.0 mg/kg/injection, schedule: Q01DX001 (ip), vehicle: other 97 % of control | dose: 100.0 mg/kg/injection, schedule: Q01DX001 (ip), vehicle: other 92 % of control | dose: 200.0 mg/kg/injection, schedule: Q01DX001 (ip), vehicle: other 95 % of control | dose: 400.0 mg/kg/injection, schedule: Q01DX001 (ip), vehicle: other 90 % of control

NNCC(F)(F)F
inactive: [2] 101 % of control

CCCCCCCCCCCCNC(=S)NCCCCCCCCCCCC
inactive: dose: 100.0 mg/kg/injection, schedule: Q04DX003 (ip), vehicle: Klucel (hydroxypropylcellulose) (HPC) 92 % of control | dose: 200.0 mg/kg/injection, schedule: Q04DX003 (ip), vehicle: Klucel (hydroxypropylcellulose) (HPC) 92 % of control | dose: 400.0 mg/kg/injection, schedule: Q04DX003 (ip), vehicle: Klucel (hydroxypropylcellulose) (HPC) 89 % of control

CCCCNC(=O)Nc1ccccc1Cl
inactive: [11] 96 % of control | [12] 99 % of control | [13] 102 % of control

COc1cccc(CC(C(=O)c2ccc(O)cc2)c2ccccc2)c1 (stereo not drawn)
inactive: [2] 97 % of control | [3] 97 % of control | [4] 101 % of control

CCc1nc(=S)c2ncn(CC)c2[nH]1
inactive: [9] 106 % of control | [10] 96 % of control | [14] 90 % of control

NNC(=O)CC(NN)c1ccccc1O (stereo not drawn)
inactive: dose: 100.0 mg/kg/injection, schedule: Q04DX002 (ip), vehicle: saline with Tween-80 90 % of control | dose: 200.0 mg/kg/injection, schedule: Q04DX002 (ip), vehicle: saline with Tween-80 100 % of control | dose: 400.0 mg/kg/injection, schedule: Q04DX002 (ip), vehicle: saline with Tween-80 102 % of control

O=C1C=C(C2CCCCC2)C(=O)C2CCCCC12 (stereo not drawn)
inactive: [11] 107 % of control | dose: 100.0 mg/kg/injection, schedule: Q01DX009 (ip), vehicle: saline 92 % of control | [12] 105 % of control | dose: 200.0 mg/kg/injection, schedule: Q01DX009 (ip), vehicle: saline 91 % of control | [13] 114 % of control | dose: 400.0 mg/kg/injection, schedule: Q01DX009 (ip), vehicle: saline 86 % of control

CCOC(=O)c1ccc(NC(=O)CCl)cc1
inactive: dose: 25.0 mg/kg/injection, schedule: Q01DX015 (ip), vehicle: saline 98 % of control | [1] 106 % of control | dose: 50.0 mg/kg/injection, schedule: Q01DX015 (ip), vehicle: saline 100 % of control | [2] 104 % of control | dose: 100.0 mg/kg/injection, schedule: Q01DX015 (ip), vehicle: saline 98 % of control | [3] 101 % of control | [4] 97 % of control

Fc1ccc(NC(=S)Nc2ccccc2)cc1
inactive: dose: 100.0 mg/kg/injection, schedule: Q04DX002 (ip), vehicle: Klucel (hydroxypropylcellulose) (HPC) 108 % of control | dose: 200.0 mg/kg/injection, schedule: Q04DX002 (ip), vehicle: Klucel (hydroxypropylcellulose) (HPC) 116 % of control | dose: 400.0 mg/kg/injection, schedule: Q04DX002 (ip), vehicle: Klucel (hydroxypropylcellulose) (HPC) 97 % of control

NC(=S)N/N=C\c1nccc2c(C(=O)O)cccc12
inactive: dose: 100.0 mg/kg/injection, schedule: Q04DX002 (ip), vehicle: saline 106 % of control | dose: 200.0 mg/kg/injection, schedule: Q04DX002 (ip), vehicle: saline 106 % of control

O=C(CNC(=O)c1ccccc1)N/N=C/c1ccncc1
inactive: [5] 91 % of control | [6] 93 % of control | [7] 86 % of control

CC(=O)Nc1ccc(NC(=O)Nc2cc([N+](=O)[O-])ccc2C)cc1
inactive: dose: 100.0 mg/kg/injection, schedule: Q01DX009 (ip), vehicle: Klucel (hydroxypropylcellulose) (HPC) 95 % of control | dose: 200.0 mg/kg/injection, schedule: Q01DX009 (ip), vehicle: Klucel (hydroxypropylcellulose) (HPC) 93 % of control | dose: 400.0 mg/kg/injection, schedule: Q01DX009 (ip), vehicle: Klucel (hydroxypropylcellulose) (HPC) 96 % of control

COc1ccc(CCNC(=O)CCN2C(=O)c3ccccc3C2=O)cc1OC
inactive: [7] 115 % of control | [9] 97 % of control | [8] 115 % of control | [10] 100 % of control | dose: 400.0 mg/kg/injection, schedule: Q01DX009 (ip), vehicle: saline with Tween-80 113 % of control | [14] 112 % of control

Reference: PubChem BioAssay AID248 (DTP/NCI, 2004)
